Test [1] has as its target NLRP3 inflammasome (Homo sapiens, UniProt Q96P20). Description: IL-1β assay in IFN-γ-differentiated, LPS-primed, ATP-activated THP-1 cells (ELISA). Particulars: 50 ng/mL LPS priming, 2.5 mM ATP activation, 2 hours. The test is classed as cell-based. An outline of the steps:
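Supernatant IL-1β is quantified by ELISA after 2 h of 2.5 mM ATP stimulation at 37 °C, with IC50 taken from a four-parameter fit of % inhibition. Before this, THP-1 macrophages (25 ng/mL IFN-γ, 24 h) were LPS-primed (50 ng/mL, 24 h, no FBS) and exposed to serially diluted compound for 30 min.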
Background: In an ELISA, binding on a coated surface is turned into a signal by an enzyme label.

Test [2] has as its system NF-κB pathway. The test is described as follows: TNF-α assay in IFN-γ-differentiated, LPS-stimulated THP-1 cells (ELISA). The test is classed as cell-based. Particulars: Homo sapiens, 50 ng/mL LPS, 3 hours. As for the experimental part:
Monocytic THP-1 cells (ATCC: TIB-202) are maintained in accordance with the provider's instructions in RPMI media (Life Technologies, Cat #A10491-01); RPMI is supplemented with 10% heat inactivated fetal bovine serum (Hyclone Cat #SH30396.03). The cells are differentiated into macrophages by the addition of 25 ng/mL IFN-γ for 24 hours at 37° C./5% CO2. Media is exchanged with fresh media with no FBS. The cells are plated at 40,000 cells per well in 384-well flat-bottom cell culture plates (Costar 3764) containing compounds (added in 1:1000) in a 1:3.16 serial dilution series in DMSO and are incubated for 30 minutes at 37° C./5% CO2. The NF-κB pathway is activated with the addition of 50 ng/mL LPS and the cells are incubated for 3 hours at 37° C./5% CO2. At the end of the incubation period, supernatant (40 μL) is removed, and […] are monitored using an ELISA (Human TNF-α ELISA, R&D systems, Cat #DY210) according to the manufacturer's instructions.
The IC50 values are calculated from a plot of percentage of inhibition versus the inhibitor concentration by a logistics curve fit according to: Y=[Bottom+(Top−Bottom)]/(1+10^[(Log IC50−X)·Hill Slope], where Y is the % inhibition at the inhibitor concentration, X, “Bottom” is the lowest inhibition value, i.e. 0%, “Top” is the maximum inhibition value, i.e. 100%, and the “Hill Slope” describes the slope of the sigmoidal curve between the “Bottom” and “Top” values. The curve fitting was conducted with internally developed software.

Each structure is given as a SMILES string. pIC50: −log10 of the molar value. Some results are limits rather than exact numbers.

Usually pIC50 stands for −log10 of the IC50, conventionally taken in molar units. A high value points to a low IC50.

NLRP3 inflammasome, sequence (Q96P20 whole entry): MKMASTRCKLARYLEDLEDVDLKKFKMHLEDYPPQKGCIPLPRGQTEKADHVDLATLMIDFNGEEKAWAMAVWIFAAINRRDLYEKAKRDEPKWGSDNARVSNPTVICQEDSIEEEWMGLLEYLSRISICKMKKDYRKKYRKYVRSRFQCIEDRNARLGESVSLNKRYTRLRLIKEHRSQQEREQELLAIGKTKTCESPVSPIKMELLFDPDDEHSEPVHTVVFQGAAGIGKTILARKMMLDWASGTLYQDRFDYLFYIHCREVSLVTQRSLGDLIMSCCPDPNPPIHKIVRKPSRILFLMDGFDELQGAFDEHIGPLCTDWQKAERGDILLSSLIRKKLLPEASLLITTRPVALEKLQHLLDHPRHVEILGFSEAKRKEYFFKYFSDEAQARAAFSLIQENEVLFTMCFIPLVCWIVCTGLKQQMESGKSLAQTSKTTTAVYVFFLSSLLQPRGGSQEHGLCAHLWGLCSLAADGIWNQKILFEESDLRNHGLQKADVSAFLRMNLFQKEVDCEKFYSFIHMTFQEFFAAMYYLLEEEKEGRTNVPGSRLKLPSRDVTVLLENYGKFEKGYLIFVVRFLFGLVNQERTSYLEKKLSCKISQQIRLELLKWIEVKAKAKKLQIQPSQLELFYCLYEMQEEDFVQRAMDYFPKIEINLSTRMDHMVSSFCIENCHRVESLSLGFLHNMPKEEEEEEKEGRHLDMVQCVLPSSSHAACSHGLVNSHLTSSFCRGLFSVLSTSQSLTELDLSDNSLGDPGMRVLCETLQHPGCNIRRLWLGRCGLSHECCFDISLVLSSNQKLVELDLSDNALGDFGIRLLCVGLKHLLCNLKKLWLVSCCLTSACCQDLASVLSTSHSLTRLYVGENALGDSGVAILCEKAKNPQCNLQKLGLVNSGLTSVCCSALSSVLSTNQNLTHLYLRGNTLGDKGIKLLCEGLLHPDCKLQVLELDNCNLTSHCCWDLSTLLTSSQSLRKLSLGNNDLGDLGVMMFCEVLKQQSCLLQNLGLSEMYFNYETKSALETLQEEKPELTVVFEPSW

On to `Clc1ccc(-c2nnc(NC3CCCN(C4CC4)C3)c3cnccc23)cc1` (centres unmarked) [Example 88, 1-(4-chlorophenyl)-N-(1-cyclopropylpiperidin-3-yl)pyrido[3,4-d]pyridazin-4-amine], for which the figures for the pIC50 in test [1] and in test [2] were 8.10 and under 4.52, respectively.
Consider `CN1C[C@H](F)C[C@@H](Nc2nnc(-c3ccc(Cl)cc3O)c3c2CCOC3)C1` [Example 200, 5-chloro-2-(1-(((3R,5R)-5-fluoro-1-methylpiperidin-3-yl)amino)-7,8-dihydro-5H-pyrano[3,4-d]pyridazin-4-yl)phenol], for which the pIC50 was 8.52 in test [1] and under 4.52 in test [2].
Turning to `CN1CCC[C@@H](Nc2nnc(-c3ccc(Cl)cc3O)c3cnccc23)C1` [Example 75, (R)-5-chloro-2-(1-((1-methylpiperidin-3-yl)amino)pyrido[3,4-d]pyridazin-4-yl)phenol], the pIC50 in test [1] is 8.52; in test [2] it was under 4.52.
Taken in the same sequence, the figures for `COc1ccc(-c2nnc(N[C@@H]3CCCN(C)C3)c3cnccc23)cc1` [Example 35, (R)-1-(4-methoxyphenyl)-N-(1-methylpiperidin-3-yl)pyrido[3,4-d]pyridazin-4-amine] were 7.06 and under 4.52.
Taken in the same sequence, the figures for `CN1CCCC(Nc2nnc(-c3ccc(Cl)cc3F)c3ccccc23)C1` (centres unmarked) [Example 43, 4-(4-chloro-2-fluorophenyl)-N-(1-methylpiperidin-3-yl)phthalazin-1-amine] were 7.39 and under 4.52.
Taken in the same sequence, the figures for `O[C@H]1C[C@@H](Nc2nnc(-c3ccc(Cl)cc3)c3ccccc23)C1` [Example 122, cis-3-((4-(4-chlorophenyl)phthalazin-1-yl)amino)cyclobutan-1-ol] were 5.64 and under 4.52.
In the case of `COc1ccc(-c2nnc(N[C@@H]3C[C@@H](F)CN(C)C3)c3c2COCC3)c(F)c1` [Example 209, N-((3R,5R)-5-fluoro-1-methylpiperidin-3-yl)-4-(2-fluoro-4-methoxyphenyl)-7,8-dihydro-5H-pyrano[3,4-d]pyridazin-1-amine], the figures for the pIC50 in test [1] and in test [2] were 5.98 and under 4.52, respectively.
Taken in the same sequence, the figures for `CN1C[C@H](F)C[C@@H](Nc2nnc(-c3ccc(F)cc3O)c3c2CCOC3)C1` [Example 203, 5-fluoro-2-(1-(((3R,5R)-5-fluoro-1-methylpiperidin-3-yl)amino)-7,8-dihydro-5H-pyrano[3,4-d]pyridazin-4-yl)phenol] were 7.49 and under 4.52.
Take `CN1CCCC(Nc2nnc(-c3ccc(Cl)cc3F)c3ccncc23)C1` (centres unmarked) [Example 68, 1-(4-chloro-2-fluorophenyl)-N-(1-methylpiperidin-3-yl)pyrido[3,4-d]pyridazin-4-amine]: the pIC50 in test [1] is 7.34; in test [2] it was under 4.52.
In the case of `CN1C[C@@H](F)C[C@@H](Nc2nnc(-c3ccc(Cl)cc3)c3ccccc23)C1` [Example 185, 4-(4-chlorophenyl)-N-((3R,5S)-5-fluoro-1-methylpiperidin-3-yl)phthalazin-1-amine], the pIC50 is 6.51 in test [1] and under 4.52 in test [2].
Take `CN1C[C@H](F)C[C@@H](Nc2nnc(-c3ccc(Cl)cc3F)c3c2CCOC3)C1` [Example 211, 4-(4-chloro-2-fluorophenyl)-N-((3R,5R)-5-fluoro-1-methylpiperidin-3-yl)-7,8-dihydro-5H-pyrano[3,4-d]pyridazin-1-amine]: the pIC50 was 5.94 in test [1] and under 4.52 in test [2].
With `COc1ccc(-c2nnc(N[C@@H]3C[C@@H](F)CN(CC4CC4)C3)c3ccccc23)cc1` [Example 194, N-((3R,5R)-1-(cyclopropylmethyl)-5-fluoropiperidin-3-yl)-4-(4-methoxyphenyl)phthalazin-1-amine], the pIC50 was 7.46 in test [1] and under 4.52 in test [2].
As for `CCN1C[C@H](F)C[C@@H](Nc2nnc(-c3ccc(OC)cc3)c3ccccc23)C1` [Example 193, N-((3R,5R)-1-ethyl-5-fluoropiperidin-3-yl)-4-(4-methoxyphenyl)phthalazin-1-amine], the values for the pIC50 in test [1] and in test [2] were 7.66 and under 4.52, respectively.
Regarding `COc1ccc(-c2nnc(Nc3cccc(O)c3)c3ccncc23)cc1` [Example 41, 3-((4-(4-methoxyphenyl)pyrido[3,4-d]pyridazin-1-yl)amino)phenol], the pIC50 is 6.40 in test [1] and under 4.52 in test [2].
For `F[C@H]1CNC[C@H](Nc2nnc(-c3ccc(Cl)cc3)c3ccccc23)C1` [Example 190, 4-(4-chlorophenyl)-N-((3R,5R)-5-fluoropiperidin-3-yl)phthalazin-1-amine], the negative logarithm of the IC50 (pIC50) in test [1] was 6.19; in test [2] it was 5.12.
Consider `COc1ccc(-c2nnc(NC3CCCN(C)C3)c3cnccc23)cc1` (centres unmarked) [Example 72, 1-(4-methoxyphenyl)-N-(1-methylpiperidin-3-yl)pyrido[3,4-d]pyridazin-4-amine], for which the pIC50 was 7.28 in test [1] and under 4.52 in test [2].
Taken in the same sequence, the figures for `CN1C[C@H](F)C[C@@H](Nc2nnc(-c3ccc(OC(F)(F)F)cc3F)c3c2COCC3)C1` [Example 205, N-((3R,5R)-5-fluoro-1-methylpiperidin-3-yl)-1-(2-fluoro-4-(trifluoromethoxy)phenyl)-7,8-dihydro-5H-pyrano[3,4-d]pyridazin-4-amine] were 7.19 and under 4.52.
On the same counts, the results for `CN1C[C@H](F)C[C@@H](Nc2nnc(-c3ccccc3O)c3ccncc23)C1` (relative stereo) [Example 172, 2-(4-((trans-5-fluoro-1-methylpiperidin-3-yl)amino)pyrido[3,4-d]pyridazin-1-yl)phenol] are 7.70 and under 4.52.
On the same counts, the results for `Cc1cc(Cl)ccc1-c1nnc(NC2CCCN(C)C2)c2ccccc12` (centres unmarked) [Example 46, 4-(4-chloro-2-methylphenyl)-N-(1-methylpiperidin-3-yl)phthalazin-1-amine] are 6.95 and under 4.52.
With `C[C@]1(O)C[C@@H](Nc2nnc(-c3ccc(Cl)cc3)c3ccccc23)C1` [Example 118, cis-3-((4-(4-chlorophenyl)phthalazin-1-yl)amino)-1-methylcyclobutan-1-ol], the pIC50 in test [1] was 6.48; in test [2] it was under 4.52.
`Oc1ccccc1-c1nnc(N[C@@H]2CCCN(CCF)C2)c2ccccc12` [Example 60, (R)-2-(4-((1-(2-fluoroethyl)piperidin-3-yl)amino)phthalazin-1-yl)phenol]: the pIC50 in test [1] was 7.57; in test [2] it was 4.67.
For the molecule `C[C@]1(O)C[C@@H](Nc2nnc(-c3ccc(Cl)cc3O)c3ccncc23)C1` [Example 95, cis-5-chloro-2-(4-((-3-hydroxy-3-methylcyclobutyl)amino)pyrido[3,4-d]pyridazin-1-yl)phenol], the values for the pIC50 in test [1] and in test [2] were 8.00 and under 4.52, respectively.
As for `Oc1ccccc1-c1nnc(N[C@@H]2CCCN(CCF)C2)c2cnccc12` [Example 86, (R)-2-(4-((1-(2-fluoroethyl)piperidin-3-yl)amino)pyrido[3,4-d]pyridazin-1-yl)phenol], the pIC50 was 7.68 in test [1] and under 4.52 in test [2].
Take `COc1ccc(-c2nnc(N[C@@H]3C[C@@H](F)CN(C(C)C)C3)c3ccccc23)cc1` [Example 196, N-((3R,5R)-5-fluoro-1-isopropylpiperidin-3-yl)-4-(4-methoxyphenyl)phthalazin-1-amine]: the pIC50 in test [1] was 7.92; in test [2] it was under 4.52.
In the case of `COc1ccc(-c2nnc(Nc3cccc(O)c3)c3cnccc23)cc1` [Example 40, 3-((1-(4-methoxyphenyl)pyrido[3,4-d]pyridazin-4-yl)amino)phenol], the negative logarithm of the IC50 (pIC50) in test [1] was 5.52; in test [2], under 4.52.
With `CN1CCC[C@@H](Nc2nnc(-c3ccc(Cl)cc3O)c3ccncc23)C1` [Example 74, (R)-5-chloro-2-(4-((1-methylpiperidin-3-yl)amino)pyrido[3,4-d]pyridazin-1-yl)phenol], the pIC50 in test [1] was 8.40; in test [2] it was under 4.52.
Regarding `CN1C[C@H](F)C[C@@H](Nc2nnc(-c3ccc(Cl)cc3F)c3c2COCC3)C1` [Example 217, 1-(4-chloro-2-fluorophenyl)-N-((3R,5R)-5-fluoro-1-methylpiperidin-3-yl)-7,8-dihydro-5H-pyrano[3,4-d]pyridazin-4-amine], the pIC50 in test [1] is 6.06; in test [2], under 4.52.
On the same counts, the results for `Oc1cc(Cl)ccc1-c1nnc(NC23CCC(O)(CC2)C3)c2cnccc12` [Example 96, 4-((1-(4-chloro-2-hydroxyphenyl)pyrido[3,4-d]pyridazin-4-yl)amino)bicyclo[2.2.1]heptan-1-ol] are 8.30 and 4.59.

Values taken from patent publication US20250340563A1, “FUSED PYRIDAZINE DERIVATIVES AS NLRP3 INHIBITORS” (Takeda Pharmaceutical Company Limited, priority 2022, published 2025).
